Legend:
BRN2 = biological target: T1, BRN2 (Homo sapiens, UniProt P20265); experiment: cell-based; conditions: negative = activation; for inhibition at 10 µM: read-out: % BRN2 Inhibition (10 μM), 10 μM compound, 24 hours, 42D^ENZR cells stably expressing BRN2-luciferase reporter; for inhibition at 30 µM: read-out: % BRN2 Inhibition (30 μM), 30 μM compound, 24 hours, 42D^ENZR cells stably expressing BRN2-luciferase reporter
T1 sequence (P20265 1-443): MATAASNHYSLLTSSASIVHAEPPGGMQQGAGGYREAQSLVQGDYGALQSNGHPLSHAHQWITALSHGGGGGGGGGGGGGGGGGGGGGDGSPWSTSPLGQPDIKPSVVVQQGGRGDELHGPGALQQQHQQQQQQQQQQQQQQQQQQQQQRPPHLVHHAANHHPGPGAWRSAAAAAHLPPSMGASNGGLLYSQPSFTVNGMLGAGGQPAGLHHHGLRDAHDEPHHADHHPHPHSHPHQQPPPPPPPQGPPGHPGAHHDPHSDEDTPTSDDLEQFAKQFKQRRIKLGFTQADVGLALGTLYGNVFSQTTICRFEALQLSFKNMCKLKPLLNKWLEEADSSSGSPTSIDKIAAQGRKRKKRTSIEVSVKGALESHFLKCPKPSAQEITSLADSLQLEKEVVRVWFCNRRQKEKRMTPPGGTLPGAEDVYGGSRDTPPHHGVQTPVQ
Text: Decreased expression of luciferase protein is validated via western blot to confirm downregulation and avoid false positive molecules that inhibit luciferase protein activity and not BRN2-drive luciferase expression. Molecules are prioritized by their inhibition potency to measure direct interaction with BRN2 in Step 2.
In TABLES 1 and 2, when a single value is mentioned in columns Met Stab % and T½, it refers to compound's stability in MLM and when two values are given they represent HLM/MLM. There is a distinction in TABLES 1 and 2 difference between “Active” and “Specific” or “Specificity”. Compounds are first tested to quantify inhibition of BRN2 transcriptional activity in a luciferase assay to determine “Activity” at […] and 30 μM concentrations. […] Where data is not available “na” is inserted. Where data has yet to be calculated the notation “nc” is used.

[1] = Liver microsome metabolic stability, MLM; type: in vitro ADME; conditions: MLM (single value or second of two), 1 μM compound, 0.25 mg/mL protein; for Met Stab % (60 mins HLM/MLM): percent remaining at 60 min, 1 mM NADPH; for half-life at 1 µM: mouse, liver microsomes, pH 7.4, read-out: T1/2 in (mins HLM/MLM)
Procedure: Potassium phosphate buffer (Kphos) was prepared by adding 0.647 g potassium phosphate monobasic (KH2PO4) and 3.527 g potassium phosphate dibasic ([…]) to 400 mL of Milli-Q water. pH of the buffer was adjusted to 7.4 and volume was made up to 500 mL.
Microsomes (20 mg/mL) were diluted in KH2PO4 buffer to prepare a concentration of 0.357 mg/mL.
Stock solutions of BRN2 inhibitors were prepared in DMSO at a concentration of 1 mM
A stock solution of 3.33 mM NADPH (3.33×) was prepared by dissolving appropriate amount of NADPH in KH2PO4 buffer.
Total Incubation volume: 100 μL
Compound concentration: 1 μM
Protein Concentration: 0.25 mg/mL
An 1120 μL aliquot of Kphos buffer (50 mM, pH 7.4) containing liver microsomes (0.357 mg/mL) were added to individual 2 mL tubes (final concentration 0.25 mg/mL). Test compounds (1 mM) and positive controls were directly spiked into respective tubes to prepare a concentration of 1.428 μM (final concentration 1 μM). From the above mix, 70 μL was added to individual wells of 96 well reaction plates and pre-incubated in a 37° C. water bath for 5 min. All the reactions were initiated by adding 30 μL of 3.33 mM NADPH (final concentration 1 mM). Reactions without NADPH and buffer controls (minus NADPH) at 0 min and 60 min were also incubated to rule out non-NADPH metabolism or chemical instability in the incubation buffer. All reactions were terminated using 100 μL of ice-cold acetonitrile containing internal standard at 0, 5, 15, 30 and 60 min. The plates were centrifuged at 4000 RPM for 15 min and 100 μL aliquots were submitted for analysis by LC-MS/MS.
Samples were monitored for parent compounds disappearance in MRM mode using LC-MS/MS.
The percent remaining of test compounds and positive control in each sample was determined by considering peak area ratio in the 0 minute sample as 100%. The Half-life of compounds in microsomes is calculated by formula:
Half-life (t½) (min)=0.693/k, where k is gradient of line determined from plot of peak area ratio (compound peak area/internal standard peak area) against time.
In vitro intrinsic clearance (CL'int) (units in mL/min/kg) was calculated using the formula.
[formula] • For liver microsomes, scaling factor used was 45 mg microsomal protein per gm liver. • Indicates liver weight (gm) which varies species wise. For mice the liver weights are 90 gm.
Where data is not available “na” is inserted.

| SMILES | inhibition at 10 µM (BRN2) | inhibition at 30 µM (BRN2) | Met Stab % (60 mins HLM/MLM) [1] | half-life at 1 µM [1] |
| --- | --- | --- | --- | --- |
| Cn1c(-c2ccc(-c3cccc(C#N)c3)o2)nc2ccccc21 [VPC-18-63, 3-(5-(1-methyl-1H-benzo[d]imidazol-2-yl)furan-2-yl)benzonitrile] | 72% | 94% | 0% |  |
| FC(F)(F)c1ccc2cc(-c3csc(N4CCCC4)n3)oc2c1 [VPC-18-72, 2-(pyrrolidin-1-yl)-4-(6-(trifluoromethyl)benzofuran-2-yl)thiazole] | 45.9% | 62.4% | 8% | 18 min |
| FC(F)(F)c1ccc2cc(-c3csc(NC4CC4)n3)oc2c1 [VPC-18-73, N-cyclopropyl-4-(6-(trifluoromethyl)benzofuran-2-yl)thiazol-2-amine] | 78.8% | 95.7% | 2% | 11 min |
| Cc1c(-c2ccc(-c3ccccc3)o2)oc2ccccc12 [VPC-18-74, 3-methyl-2-(5-phenylfuran-2-yl)benzofuran] | 96.7% | 99% | 2% | 11 min |
| c1coc(-c2nc(-c3cc4ncccc4o3)cs2)c1 [VPC-18-75, 2-(2-(furan-2-yl)thiazol-4-yl)furo[3,2-b]pyridine] | 71.9% | 91.9% | 0% |  |
| FC(F)(F)c1ccc2nc(-c3csc(C4=CCOCC4)n3)oc2c1 [VPC-18-77] | 11.3% | 63.4% | 24% | 29 min |
| FC(F)(F)c1ccc2cc(-c3csc(N4CCOCC4)n3)oc2c1 [VPC-18-78, 4-(4-(6-(trifluoromethyl)benzofuran-2-yl)thiazol-2-yl)morpholine] | 43.6% | 79.6% | 25% | 30 min |
| N#Cc1ccc2cc(-c3csc(-c4ccco4)n3)oc2c1 [VPC-18-80] | 42% | 44% | 0% |  |
| Cn1c(-c2ccc(C3CCNCC3)o2)nc2ccc(C(F)(F)F)cc21 [VPC-18-82] | 11% | 50% | 100% | > 60 min |
| FC(F)(F)c1ccc2cc(-c3csc(NCC4CC4)n3)oc2c1 [VPC-18-86] | 32% | 92% | 5% | 13 min |
| FC(F)(F)c1ccc2nc(-c3ccc(-c4ccccc4)o3)[nH]c2c1 [VPC-18-87] | 85% | 87% | 37% | 40 min |
| N#Cc1c(-c2csc(-c3ccco3)n2)oc2ccccc12 [VPC-18-88, 2-(2-(furan-2-yl)thiazol-4-yl)benzofuran-3-carbonitrile] | 76% | 96% | 0% | 9 min |
| FC(F)(F)c1ccc2cc(-c3csc(C4CCNCC4)n3)oc2c1 [VPC-18-89, 2-(piperidin-4-yl)-4-(6-(trifluoromethyl)benzofuran-2-yl)thiazole] | 65% | 98% | 65% | > 60 min |
| Clc1ccc2cc(-c3cncc(-c4ccc[nH]4)n3)oc2c1 [VPC-18-130] |  |  | 1% | 9 min |
| Clc1ccc2cc(-c3cccc(-c4ccc[nH]4)c3)oc2c1 [VPC-18-153] |  |  | 2% | 11 min |
| Clc1ccc2cc(-c3csc(-c4nccs4)n3)oc2c1 [VPC-18-165] |  |  | 6% | 16 min |
| Fc1c(Cl)ccc2cc(-c3csc(-c4ccc[nH]4)n3)oc12 [VPC-18-166] |  |  | 1% | 10 min |
